Assay results reported in patent publication US20230365563A1, “QUINAZOLINE COMPOUND AND APPLICATION THEREOF” (SHANGHAI PHARMACEUTICALS HOLDING CO., LTD., priority 2020, published 2023).
Structures can show the parent of a compound that is named as a salt.

Legend:
KRAS_WT and SOS1 = biological target: T1, KRAS_WT and SOS1 (Homo sapiens, UniProt P01116); assay: Inhibition of KRAS_WT/SOS1 binding (Cisbio binding kit, 665/615 ratio), Effect Embodiment C; details: read-out: GTP-KRAS-WT:SOS1 IC50
T1 construct: purchased
T1 sequence (P01116 1-188 isoform P01116-2): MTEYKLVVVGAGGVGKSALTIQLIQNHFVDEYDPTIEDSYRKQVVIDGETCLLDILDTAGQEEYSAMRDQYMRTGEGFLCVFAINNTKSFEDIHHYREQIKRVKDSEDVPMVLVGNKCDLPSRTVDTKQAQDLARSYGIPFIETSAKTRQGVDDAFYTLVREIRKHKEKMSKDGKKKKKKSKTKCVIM
Outline: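 Compounds tested as 3-fold, 11-point dilutions in duplicate at 1% DMSO final against the KRAS_WT/SOS1 binding system. IC50 derived by nonlinear regression fit.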

KRAS-G12D and SOS1 = biological target: T2, KRAS-G12D and SOS1 (Homo sapiens, UniProt P01116, G12D); assay: Inhibition of KRAS-G12D/SOS1 binding (Cisbio binding kit, 665/615 ratio), Effect Embodiment A; details: read-out: GTP-KRAS-G12D:SOS1 IC50
T2 construct: purchased
T2 sequence (P01116 1-188 isoform P01116-2 G12D): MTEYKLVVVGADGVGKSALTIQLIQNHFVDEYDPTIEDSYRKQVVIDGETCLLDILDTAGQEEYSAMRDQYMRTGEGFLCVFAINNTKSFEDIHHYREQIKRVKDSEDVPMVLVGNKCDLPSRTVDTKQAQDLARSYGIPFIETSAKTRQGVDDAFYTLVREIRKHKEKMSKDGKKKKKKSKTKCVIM
Outline: (§1)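 Duplicate wells received an eleven-point, threefold compound titration whose top point was the stock solution; final DMSO 1%.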

KRAS_G12D and cRAF = biological target: T3, KRAS_G12D and cRAF (Homo sapiens, UniProt P01116, G12D); assay: Inhibition of KRAS_G12D/cRAF binding (Cisbio binding kit, 665/615 ratio), Effect Embodiment B; details: read-out: GTP-KRAS-G12D:CRAF IC50
T3 construct: purchased
T3 sequence (P01116 1-188 isoform P01116-2 G12D): as above
Outline: as §1

| Structure (SMILES) | IC50 (KRAS_WT and SOS1) [nM] | IC50 (KRAS-G12D and SOS1) [nM] | IC50 (KRAS_G12D and cRAF) [nM] |
| --- | --- | --- | --- |
| CN(C)CCCCCCOc1nc(N2C[C@H]3CC[C@@H](C2)N3)c2cc(Cl)c(-c3cc(O)cc4ccccc34)c(F)c2n1 (single isomer, unassigned) [Compound 68, (S or R)-4-(4-((1R,5S)-3,8-diazabicyclo[3.2.1]octan-3-yl)-6-chloro-2-((6-(dimethylamino)hexyl)oxy)-8-fluoroquinazolin-7-yl)naphthalen-2-ol dihydrochloride] | 16700 | 214 | 646 |
| CN(C)CCCCCOc1nc(N2CC3CCC(C2)N3)c2cc(Cl)c(-c3cc(O)cc4ccccc34)c(F)c2n1 (single isomer, unassigned) [Compound 98, 4-((S or R)-4-((1R,5S)-3,8-diazabicyclo[3.2.1]octan-3-yl)-6-chloro-2-((5-(dimethylamino)pentyl)oxy)-8-fluoroquinazolin-7-yl)naphthalen-2-ol carboxylate] | 7700 | 95.3 | 477 |
| C[C@H]1CN(CCCOc2nc(N3CC4CCC(C3)N4)c3cc(Cl)c(-c4cc(O)cc5ccccc45)c(F)c3n2)CCO1 (single isomer, unassigned) [Compound 246, 4-((S or R)-4-((1R,5S)-3,8-diazacyclo[3.2.1]octan-3-yl)-6-chloro-8-fluoro-2-(3-((S)-2-methylmorpholinyl)propoxy)quinazolin-7-yl)naphthalen-2-ol formate] | 3700 | 37.4 | 218 |
| CC1OCCN(CCCOc2nc(N3CC4CCC(C3)N4)c3cc(Cl)c(-c4cc(O)cc5ccccc45)c(F)c3n2)C1C (single isomer, unassigned) [Compound 265d, 4-((R or S)-4-((1R,5S)-3,8-diazabicyclo[3.2.1]octan-3-yl)-6-chloro-2-(3-(2R or 2S, 3R or 3S)-2,3-dimethylmorpholinyl)propoxy)-8-fluoroquinazolin-7-yl)naphthalen-2-ol diformate] | 4900 | 50 | 184 |
| CN(C)C1CN(c2nc(N3CCCNCC3)c3cc(Cl)c(-c4cc(O)cc5ccccc45)c(F)c3n2)C1 (single isomer, unassigned) [Compound 23, (S or R)-4-(6-chloro-4-(1,4-diaza-1-yl)-2-(3-(dimethylamino)azetidin-1-yl)-8-fluoroquinazolin-7-yl)naphthalen-2-ol] | 12400 | 947 | 22600 |
| CN1CCC[C@H]1COc1nc(N2CC3CCC(C2)N3)c2cc(F)c(-c3cc(O)cc4ccccc34)c(F)c2n1 [Compound 160, 4-(4-((1R,5S)-3,8-diazabicyclo[3.2.1]octan-3-yl)-6,8-difluoro-2-((S)-1-methylpyrrolidin-2-yl)methoxy)quinazolin-7-yl)naphthalen-2-ol dihydrochloride] | 390 | 27.4 | 32.4 |
| Oc1cc(-c2c(Cl)cc3c(N4CC5CCC(C4)N5)nc(OCCCN4CC5(COC5)C4)nc3c2F)c2ccccc2c1 (single isomer, unassigned) [Compound 245, 4-((S or R)-2-(3-(2-oxa-6-azaspiro[3.3]heptan-6-yl)propoxy)-4-((1R,5S)-3,8-diazacyclo[3.2.1]octan-3-yl)-6-chloro-8-fluoroquinazolin-7-yl)naphthalen-2-ol diformate] | 1480 | 27.4 | 110 |
| CCCN(C)CCCOc1nc(N2CC3CCC(C2)N3)c2cc(Cl)c(-c3cc(O)cc4ccccc34)c(F)c2n1 (single isomer, unassigned) [Compound 51a, 4-((S or R)-4-((1R,5S)-3,8-diazabicyclo[3.2.1]octan-3-yl)-6-chloro-8-fluoro-2-(3-(methyl(propyl)amino)propoxy)quinazolin-7-yl)naphthalen-2-ol carboxylate] | 1420 | 30.8 | 144 |
| CN1CCCC1CCOc1nc(N2CC3CCC(C2)N3)c2cc(Cl)c(-c3cc(O)cc4ccccc34)c(F)c2n1 (single isomer, unassigned) [Compound 96a, 4-((S or R)-4-((1R,5S)-3,8-diazabicyclo[3.2.1]octan-3-yl)-6-chloro-8-fluoro-2-(2-((S or R)-1-methylpyrrolidin-2-yl)ethoxy)quinazolin-7-yl)naphthalen-2-ol] | 1540 | 22 | 88.5 |
| CN(C)C1CN(c2nc(N3C[C@@H]4C[C@H]3CN4)c3cc(Cl)c(-c4cc(O)cc5ccccc45)c(F)c3n2)C1 (single isomer, unassigned) [Compound 2a, (R or S)-4-(4-((1S,4S)-2,5-diazabicyclo [2.2.1]heptan-2-yl)-6-chloro-2-(3-(dimethylamino)azetidin-1-yl)-8-fluoro-quinazolin-7-yl)naphthalen-2-ol] | 9750 | 248 | 589 |
| CN(C)C1CN(c2nc(N3CCNC4CC43)c3cc(Cl)c(-c4cc(O)cc5ccccc45)c(F)c3n2)C1 (single isomer, unassigned) [Compound 28, 4-((S or R)-4-((1R,6S or 1S,6R)-2,5-diazabicyclo[4.1.0]heptan-2-yl)-6-chloro-2-(3-(dimethylamino)azetidin-1-yl)-8-fluoroquinazolin-7-yl)naphthalen-2-ol trifluoroacetate] | 22500 | 312 | 4700 |
| C[C@@H](COc1nc(N2CC3CCC(C2)N3)c2cc(Cl)c(-c3cc(O)cc4ccccc34)c(F)c2n1)CN1C[C@H](C)OC[C@H]1C (single isomer, unassigned) [Compound 237, 4-((S or R)-4-((1R,5S)-3,8-diazacyclo[3.2.1]octan-3-yl)-6-chloro-2-((R)-3-((2S,5R)-2,5-dimethylmorpholinyl)-2-methylpropoxy)-8-fluoroquinazolin-7-yl)naphthalen-2-ol formate] | 569 | 19.5 | 18.6 |
| C[C@@H](COc1nc(N2CC3CCC(C2)N3)c2cc(Cl)c(-c3cc(O)cc4ccccc34)c(F)c2n1)CN1CCOC2(CC2)C1 (single isomer, unassigned) [Compound 243, 4-((S or R)-4-((1R,5S)-3,8-diazabicyclo[3.2.1]octan-3-yl)-6-chloro-8-fluoro-2-((R)-2-methyl-3-(4-oxa-7-azaspiro[2.5]octan-7-yl)propoxy)quinazolin-7-yl)naphthalen-2-ol formate] | 1250 | 19.2 | 37.5 |
| Oc1cc(-c2c(Cl)cc3c(N4CC5CCC(C4)N5)nc(OCCN4CCCC4)nc3c2F)c2ccccc2c1 (single isomer, unassigned) [Compound 116, 4-((S or R)-4-((1R,5S)-3,8-diazabicyclo[3.2.1]octan-3-yl)-6-chloro-8-fluoro-2-(2-(pyrrolidin-1-yl)ethoxy)quinazolin-7-yl)naphthalen-2-ol dihydrochloride] | 3380 | 65.7 | 189 |
| Oc1cc(-c2c(Cl)cc3c(N4CC5CCC(C4)N5)nc(OCCCN4C5CCCC4COC5)nc3c2F)c2ccccc2c1 (single isomer, unassigned) [Compound 177, (R or S)-4-(2-(3-((1R,5S)-3-oxa-9-azabicyclo[3.3.1]nonan-9-yl)propoxy)-4-((1R,5S)-3,8-diazabicyclo[3.2.1]octan-3-yl)-6-chloro-8-fluoroquinazolin-7-yl)naphthalen-2-ol formate] | 1190 | 40.5 | 121 |
